The source of these data is paper PMC10287695, “Non-covalent inhibitors of thioredoxin glutathione reductase with schistosomicidal activity in vivo” (Nature Communications, 2023).

“And” between values parts separate entries of the source, which are not always exact repeats. Equal values may be shown once. Read-outs that look alike come from different tables or passages of the source. Bounds are passed on as bounds.

The test system of assay [1] is S. mansoni adult worms in mice. The assay can be described thus: Schistosomicidal efficacy in infected mice, adult worms (42 d.p.i.). In kind it is in vivo. The conditions noted are these: for Egg burden, Treated, individual mice / Worm burden, Treated, individual mice: Adult worm; for Egg burden, Treated, individual mice: eggs per 50 mg liver (Fig. 6); for decrease in egg burden / decrease in worm burden: mice. On the procedure:
(§1) To assess the efficacy of the compounds in vivo against juvenile and adult worms, five female Swiss-Webster mice were randomly assigned for the control and experiment groups using a randomization tool embedded in GraphPad Prism. Mice were percutaneously exposed for 1 h to about 80 S. mansoni cercariae. Three- and six-weeks post infection, respectively, for juvenile and adult worms, mice were treated depending on their weight with formulations of the compounds, while the control mice received only the vehicle. Compounds were formulated with 10% DMSO and 10% Tween-80, and vortexed to obtain a uniform mixture. The mixture was sonicated twice for 5 min each time using a digital ultrasonic cleaner heated to 50 °C. Sodium chloride 0.9% (80% normal saline) was added to the mixture, briefly vortexed and sonicated one more time using the same conditions as previous. The investigators were blinded by which group of mice received a treatment and the vehicle, as injection was done by technicians from the Comparative Research Center of Rush University Medical Center. Using a 26 G, 3/8 in intradermal bevel needle, each mouse was administered intraperitoneally with 100 µl of the formulated compound suspension at 50 mg/kg, 100 mg/kg and 200 mg/kg. Mice treated three weeks post infection for juvenile worms were euthanized three weeks post treatment and mice treated six weeks post infection were euthanized one week post treatment with 0.018 ml of Euthasol and 5.85 mg/ml heparin and perfused. The mesenteric and hepatic portal veins of the mice were carefully scanned under the microscope to extract any remaining S. mansoni adult worms and worm burdens were determined. Egg burden was determined by weighing 50 mg of liver tissue from each of treated and control mice. The liver tissues were digested with 5% KOH at 37 °C overnight and washed twice with PBS. The number of eggs per 50 mg of liver tissue was determined using a Keyence BZ-X800 microscope using the egg autofluorescence.

The test system of assay [2] is S. mansoni juvenile worms in mice. The assay can be described thus: Schistosomicidal efficacy in infected mice, juvenile worms (21 d.p.i.). Particulars: for Egg burden, Treated, individual mice / Worm burden, Treated, individual mice: Juvenile worm; for Egg burden, Treated, individual mice: eggs per 50 mg liver (Fig. 6); for decrease in egg burden / decrease in worm burden: mice. The format is in vivo. As for the experimental part: as §1

The next assay concerns the target T1, TGR (Schistosoma mansoni, UniProt Q962Y6).
T1 construct: made in house
T1 sequence (Q962Y6 1-598): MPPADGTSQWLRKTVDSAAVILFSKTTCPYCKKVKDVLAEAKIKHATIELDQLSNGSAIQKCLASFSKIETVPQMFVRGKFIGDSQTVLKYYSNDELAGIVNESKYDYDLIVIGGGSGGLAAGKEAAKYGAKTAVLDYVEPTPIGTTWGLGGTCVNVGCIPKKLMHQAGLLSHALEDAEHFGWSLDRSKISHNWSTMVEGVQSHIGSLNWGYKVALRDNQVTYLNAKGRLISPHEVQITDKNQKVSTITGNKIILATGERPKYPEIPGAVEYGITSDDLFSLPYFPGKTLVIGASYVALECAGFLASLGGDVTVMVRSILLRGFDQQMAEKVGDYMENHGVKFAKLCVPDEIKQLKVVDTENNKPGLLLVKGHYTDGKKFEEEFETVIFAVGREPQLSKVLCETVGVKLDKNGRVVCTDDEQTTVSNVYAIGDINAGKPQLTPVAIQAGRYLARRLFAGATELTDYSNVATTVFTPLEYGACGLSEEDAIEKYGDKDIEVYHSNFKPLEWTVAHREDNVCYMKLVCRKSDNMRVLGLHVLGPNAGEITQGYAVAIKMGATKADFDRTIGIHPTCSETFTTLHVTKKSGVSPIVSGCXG
In kind it is biochemical, S. mansoni. Particulars: for mode of inhibition (NADPH varied): steady state. As for the experimental part:
Master mixes with varying concentrations of NADPH were made, each with 2 nM TGR in reaction buffer. Inhibitor (2 µl) was added to a 96 well microplate in triplicate for each NADPH and inhibitor concentration, and 192 µl of the master buffer was added to each well. The reaction incubated for 15 min and 6 µl of 50 mM DTNB was added to each well. The kinetic rate was measured at A412 for 5 min.

The mark [3] stands for this setting: 1 x 100 mg/kg i.p. at 42 d.p.i.
[4] abbreviates: 2 x 100 mg/kg i.p. (1: bid at 42 d.p.i.; 6: at 42 and 45 d.p.i.).
Where [5] appears, read: 2 x 100 mg/kg at 21 d.p.i. (juvenile worms).
Setting [6] is: 1 x 100 mg/kg, listed as 8VP101.
The mark [7] stands for this setting: 2 x 50 mg/kg i.p. at 42 and 45 d.p.i.
The mark [8] stands for this setting: 1 x 100 mg/kg at 21 d.p.i. (juvenile worms).
The mark [9] stands for this setting: 1 x 100 mg/kg, listed as 8VP192.
Setting [10] is: 2 x 100 mg/kg, listed as 8VP192.
[11] abbreviates: inhibitor 0.6 µM, NADPH 10 (unit not given).
Setting [12] is: inhibitor 0.6 µM, NADPH 30 (unit not given).
[13] abbreviates: inhibitor 0.6 µM, NADPH 100 (unit not given).
The mark [14] stands for this setting: inhibitor 0.6 µM, NADPH 300 (unit not given).
The mark [15] stands for this setting: inhibitor 10 µM, NADPH 10 (unit not given).
Where [16] appears, read: inhibitor 10 µM, NADPH 30 (unit not given).
Setting [17] is: inhibitor 10 µM, NADPH 100 (unit not given).
Where [18] appears, read: inhibitor 10 µM, NADPH 300 (unit not given).
[19] abbreviates: inhibitor 30 µM, NADPH 10 (unit not given).
The mark [20] stands for this setting: inhibitor 30 µM, NADPH 30 (unit not given).
[21] abbreviates: inhibitor 30 µM, NADPH 100 (unit not given).
[22] abbreviates: inhibitor 30 µM, NADPH 300 (unit not given).
[23] abbreviates: 1 x 100 mg/kg, listed as 9VP173.
Where [24] appears, read: 1 x 200 mg/kg, listed as 9VP173.
[25] abbreviates: 1 x 200 mg/kg i.p. at 42 d.p.i.

As to `Cc1oc(-c2ccc3c(c2)OCO3)nc1CN[C@@H]1C[C@@H]2C[C@H]([C@H]1C)C2(C)C` [Compound 1], the “Egg burden, Treated, individual mice” value in assay [1] (1 x 100 mg/kg, listed as 8VP70) was 1302 and 1436 and 1582 and 1478 and 1434; in assay [1] (2 x 100 mg/kg, listed as 8VP70), 1572 and 1426 and 1565 and 1335 and 1329; in assay [2] (2 x 100 mg/kg, listed as 8VP70) it was 1567 and 1683 and 1698 and 1583 and 1670. Besides, the “Worm burden, Treated, individual mice” value was 15 and 16 and 12 in assay [1] (1 x 100 mg/kg, listed as 8VP70); 12 and 10 and 9 and 8 in assay [1] (2 x 100 mg/kg, listed as 8VP70); 21 and 22 and 19 and 20 in assay [2] (2 x 100 mg/kg, listed as 8VP70). The “decrease in egg burden” value in assay [1] (setting [3]) is 40% and 40.5%; in assay [1] (setting [4]) it was 48% and 47.5%; in assay [2] (setting [5]), 31%. The “decrease in worm burden” value in assay [1] (setting [3]) is 44% and 43.5%; in assay [1] (setting [4]) it was 54% and 53.6%; in assay [2] (setting [5]), 28.2% and 28%.

With `CCc1ccccc1-c1nc(CN[C@@H]2C[C@@H]3C[C@H]([C@H]2C)C3(C)C)c(C)o1` [Compound 2], the “Egg burden, Treated, individual mice” value in assay [1] (setting [6]) is 296 and 301 and 311 and 299 and 321; in assay [1] (2 x 50 mg/kg, listed as 8VP101), 319 and 335 and 372 and 393 and 436; in assay [2] (setting [6]) it was 986 and 1201 and 968 and 1001 and 988. Further, the “Worm burden, Treated, individual mice” value in assay [1] (setting [6]) is 8 and 6 and 4 and 5; in assay [1] (2 x 50 mg/kg, listed as 8VP101), 5 and 10 and 8 and 4 and 3; in assay [2] (setting [6]), 12 and 13 and 11 and 8. Besides, the “decrease in egg burden” value is 73% and 73.3% in assay [1] (setting [3]); 69% and 68.8% in assay [1] (setting [7]); 56.7% and 57% in assay [2] (setting [8]). Also, the “decrease in worm burden” value in assay [1] (setting [3]) is 85% and 85.2%; in assay [1] (setting [7]) it was 43% and 42.9%; in assay [2] (setting [8]), 61.3% and 61% and > 60%. The ED50 in assay [2] (Schistosoma mansoni, 504 h, based on the single dose tested, 21 d.p.i., read-out: estimated ED50 against juvenile worms) is under 100 mg/kg.

For `C#CCN(Cc1nc(-c2ccccc2)oc1C)[C@@H]1C[C@@H]2C[C@H]([C@H]1C)C2(C)C` [Compound 6], the “Egg burden, Treated, individual mice” value was 2001 and 2098 and 2074 and 2073 in assay [1] (setting [9]); 2011 and 2073 and 2001 and 2098 and 2074 in assay [1] (setting [10]); 2214 and 2212 and 2241 and 2153 and 2264 in assay [2] (setting [10]). The “Worm burden, Treated, individual mice” value in assay [1] (setting [9]) was 18 and 19 and 11 and 14 and 12; in assay [1] (setting [10]) it was 23 and 26 and 25 and 20 and 22; in assay [2] (setting [10]) it was 28 and 25 and 23 and 18 and 26. Further, the “decrease in egg burden” value in assay [1] (setting [3]) was 3% and 2.8%; in assay [1] (setting [4]), 18% and 18.2%; in assay [2] (setting [5]), 6.8% and 7%. In addition, the “decrease in worm burden” value in assay [1] (setting [3]) was 34% and 33.9%; in assay [1] (setting [4]), 38% and 38.39%; in assay [2] (setting [5]) it was 15.5% and 16%.

With `C[C@@H]1[C@H]2C[C@@H](C[C@H]1NCc1nc3ccccc3n1C1CCCCCC1)C2(C)C` [Compound 8], the results for the Vmax at TGR (0.6 µM fast inhibitor), on TGR (10 µM fast inhibitor) and at TGR (30 µM fast inhibitor) were 0.05 ± 0.0017 ΔA412/min, 0.0091 ± 0.0007 ΔA412/min and 0.0067 ± 7E-5 ΔA412/min, respectively. Further, the “Rate, single replicate” value is 0.02362 and 0.02203 and 0.02232 on TGR (setting [11]); 0.03949 and 0.03661 and 0.03778 on TGR (setting [12]); 0.04159 and 0.0438 and 0.04407 on TGR (setting [13]); 0.04835 and 0.04882 and 0.0495 at TGR (setting [14]); 0.007669 and 0.006838 and 0.009131 at TGR (setting [15]); 0.005991 and 0.006991 and 0.01256 on TGR (setting [16]). Moreover, the “Rate, single replicate” value at TGR (setting [17]) is 0.006895 and 0.007479 and 0.009519; at TGR (setting [18]) it was 0.01018 and 0.009394 and 0.01058; at TGR (setting [19]), 0.00609 and 0.005955 and 0.006026; at TGR (setting [20]), 0.006205 and 0.005206 and 0.007748; on TGR (setting [21]) it was 0.006944 and 0.006279 and 0.006539; at TGR (setting [22]), 0.005974 and 0.006732 and 0.007751. Besides, the avg rate at TGR (setting [11]) came out at 0.02266; on TGR (setting [12]), 0.03796; at TGR (setting [13]) it was 0.04315; on TGR (setting [14]), 0.04889; on TGR (setting [15]) it was 0.007879; on TGR (setting [16]) it was 0.008514. Also, the avg rate on TGR (setting [17]) is given as 0.007964; at TGR (setting [18]), 0.01005; at TGR (setting [19]) it was 0.006024; on TGR (setting [20]), 0.006386; at TGR (setting [21]), 0.006587; on TGR (setting [22]), 0.006819. Moreover, the “mode of inhibition (NADPH varied)” value on TGR is recorded as “uncompetitive inhibition”; on TGR (listed as 8 (9VP173)), “uncompetitive behavior”. Further, the “Egg burden, Treated, individual mice” value is 2302 and 2373 and 2391 and 2292 and 2275 in assay [1] (setting [23]); 2221 and 2235 and 2223 and 2217 and 2241 in assay [1] (setting [24]). The “Worm burden, Treated, individual mice” value in assay [1] (setting [23]) was 24 and 25 and 21 and 15; in assay [1] (setting [24]) it was 24 and 29 and 27 and 28 and 23. The “decrease in egg burden” value is 2.1% in assay [1] (setting [3]); 7% and 6.8% in assay [1] (setting [25]). For the same molecule, the “decrease in worm burden” value was 13.5% in assay [1] (setting [3]); 19% and 18.9% in assay [1] (setting [25]).
